These results are taken from US7741493B2, “Heterocyclic compounds as P2X7 ion channel blockers” (Aventis Pharmaceuticals Inc., priority 2003, dated 2010).

Each structure is given as a SMILES string. Where a name gives a salt, the structure may show the parent alone.

For the first assay, the target named is T1, P2X7 (Homo sapiens, UniProt Q99572).
T1 sequence (Q99572 1-595): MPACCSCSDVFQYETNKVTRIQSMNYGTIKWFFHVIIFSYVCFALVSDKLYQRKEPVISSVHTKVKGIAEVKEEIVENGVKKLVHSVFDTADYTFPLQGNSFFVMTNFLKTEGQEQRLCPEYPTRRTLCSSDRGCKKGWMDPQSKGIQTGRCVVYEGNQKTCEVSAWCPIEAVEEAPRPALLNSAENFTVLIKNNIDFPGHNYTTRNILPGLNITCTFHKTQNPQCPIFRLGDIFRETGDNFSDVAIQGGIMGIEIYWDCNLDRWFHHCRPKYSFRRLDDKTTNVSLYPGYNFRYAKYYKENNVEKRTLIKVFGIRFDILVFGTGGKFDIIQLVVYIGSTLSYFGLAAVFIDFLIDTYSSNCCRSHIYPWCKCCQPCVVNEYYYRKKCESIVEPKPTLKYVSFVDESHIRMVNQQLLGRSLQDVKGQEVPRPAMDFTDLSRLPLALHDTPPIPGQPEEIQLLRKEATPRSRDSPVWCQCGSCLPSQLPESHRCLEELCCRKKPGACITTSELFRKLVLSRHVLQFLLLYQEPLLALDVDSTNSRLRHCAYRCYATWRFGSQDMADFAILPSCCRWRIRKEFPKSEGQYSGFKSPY
The assay is described as follows: YO-PRO-1 dye uptake assay in U373 cells stably expressing P2X7. Also on record: The complete open reading frame of human P2X7 was amplified from Incyte clone 148057; expressed in transfected cells. Conditions: IC50 (nM), dye uptake through P2X7, U373 cells, 300 μM BzATP, 5 μM YO-PRO-1, test compounds 30 nM to 3 μM. The format is cell-based. The procedure:
Following a 24-hr exposure to DNA, cells were trypsinized and re-seeded at low density in the presence of […] G418. After incubation for 2 weeks, isolated clones were selected with cloning cylinders and replated in […] G418. Cell clones were then expanded. Clones were screened for P2X7 by applying ATP and recording the resultant current using patch clamp electrophysiology.
U373 cells stably expressing P2X7 were used to screen drugs via a dye uptake assay. Cells were plated overnight on collagen coated 96-well plates at a density of 35,000 cells per well. The following day, culture media was replaced with Mg^++ and Ca^++-free Hank's balanced salt solution and various concentrations of test compounds ranging from 30 nM to 3 μM. Cells were then allowed to incubate with test compounds at 37° C. for 20 minutes. Following this incubation period YO-PRO-1 dye (Molecular Probes, Eugene, Oreg., final concentration 5 μM) and 2′-& 3′-O-(4-Benzolybenzoyl)-Adenosine 5′-triphosphate (Sigma Chemical, St Louis, Mo., final concentration 300 μM) were added to the cells sequentially. Cells were then incubated at 37° C. for 1.5 hours. […] Fluorescence in the presence of test substances was compared to that in the absence of test substances (control).
As a reminder, the IC50 is the concentration that inhibits the measured activity by half. The compound `c1ccc(CCCCC2=N[C@H](c3ccccc3)[C@H](c3ccccc3)N2)cc1` [2-[4-phenyl-butyl]-cis-4,5-diphenyl-4,5-dihydro-1H-imidazole trifluoroacetate] displayed an IC50 of 610 nM.

The same assay, now with this note: dye uptake through P2X7, U373 cells, 300 μM BzATP, 5 μM YO-PRO-1, test compounds 30 nM to 3 μM; read-out: IC50.
In the case of `COc1ccccc1CCC1=N[C@@H](c2ccccc2)[C@@H](c2ccccc2)N1` [2-[2-(2-Methoxyphenyl)ethyl]-cis-4,5-diphenyl-4,5-dihydro-1H-imidazole trifluoroacetate], the 50% inhibitory concentration (IC50) is 832 nM.

For the compound `Cc1ccccc1CCC1=N[C@@H](c2cccc(F)c2)[C@@H](c2cccc(F)c2)N1` [2-[2-(2-Methylphenyl)ethyl]-cis-4,5-bis-(3-fluorophenyl)-4,5-dihydro-1H-imidazole trifluoroacetate], the IC50 turned out to be 94 nM.

Turning to `Fc1cccc([C@H]2NC(CCc3ccc(F)c(F)c3)=N[C@H]2c2cccc(F)c2)c1` [2-[2-(3,4-Difluorophenyl)ethyl]-cis-4,5-bis-(3-fluorophenyl)-4,5-dihydro-1H-imidazole], the IC50 stood at 173 nM.

As to `Fc1ccc(CCC2=N[C@H](c3ccccc3)[C@H](c3ccccc3)N2)cc1F` [2-[2-(3,4-Difluorophenyl)ethyl]-cis-4,5-diphenyl-4,5-dihydro-1H-imidazole], the IC50 amounted to 122 nM.

Turning to `Clc1cccc(CCC2=N[C@H](c3ccccc3)[C@H](c3ccccc3)N2)c1` [2-[2-(3-Chlorophenyl)ethyl]-cis-4,5-diphenyl-4,5-dihydro-1H-imidazole trifluoroacetate], the half-inhibitory concentration (IC50) turned out to be 120 nM.

Consider `Fc1cccc(CCC2=N[C@@H](c3cccc(F)c3)[C@@H](c3cccc(F)c3)N2)c1` [2-[2-(3-Fluorophenyl)ethyl]-cis-4,5-bis-(3-fluorophenyl)-4,5-dihydro-1H-imidazole trifluoroacetate], for which the IC50 turned out to be 79 nM.

On to `Fc1cccc(CCC2=N[C@@H](c3ccccc3)[C@@H](c3ccccc3)N2)c1` [2-[2-(3-Fluorophenyl)ethyl]-cis-4,5-diphenyl-4,5-dihydro-1H-imidazole trifluoroacetate], for which the IC50 was 31 nM.

Regarding `Cc1cccc(CCC2=N[C@@H](c3cccc(F)c3)[C@@H](c3cccc(F)c3)N2)c1` [2-[2-(3-Methylphenyl)ethyl]-cis-4,5-bis-(3-fluorophenyl)-4,5-dihydro-1H-imidazole trifluoroacetate], the IC50 came to 385 nM.

Turning to `Cc1cccc(CCC2=N[C@@H](c3ccccc3)[C@@H](c3ccccc3)N2)c1` [2-[2-(3-Methylphenyl)ethyl]-cis-4,5-diphenyl-4,5-dihydro-1H-imidazole trifluoroacetate], the IC50 is 229 nM.

`Fc1ccc(CCC2=N[C@@H](c3cccc(F)c3)[C@@H](c3cccc(F)c3)N2)cc1` [2-[2-(4-Fluorophenyl)ethyl]-cis-4,5-bis-(3-fluorophenyl)-4,5-dihydro-1H-imidazole trifluoroacetate]: the IC50 was 572 nM.

As to `Fc1ccc(CCC2=N[C@@H](c3ccccc3)[C@@H](c3ccccc3)N2)cc1` [2-[2-(4-Fluorophenyl)ethyl]-cis-4,5-diphenyl-4,5-dihydro-1H-imidazole trifluoroacetate], the concentration for half-maximal inhibition (IC50) is 218 nM.

For `c1ccc(CCCC2=N[C@H](c3ccccc3)[C@H](c3ccccc3)N2)cc1` [2-[3-phenyl-propyl]-cis-4,5-diphenyl-4,5-dihydro-1H-imidazole trifluoroacetate], the IC50 was 540 nM.

Regarding `Fc1ccc(CSC2=N[C@@H](c3ccccc3)[C@@H](c3ccccc3)N2)c(Cl)c1` [2-[(2-Chloro-4-fluorobenzyl)thio]-cis-4,5-diphenyl-4,5-dihydro-1H-imidazole hydrochloride], the IC50 amounted to 828 nM.

For the compound `Fc1cccc([C@H]2NC(COc3ccccc3F)=N[C@H]2c2cccc(F)c2)c1` [2-[(2-Fluorophenoxy)methyl]-cis-4,5-bis-(3-fluorophenyl)-4,5-dihydro-1H-imidazole], the IC50 was 834 nM.

`Fc1cccc([C@H]2NC(CCc3cccs3)=N[C@H]2c2cccc(F)c2)c1` [2-[(2-Thiophen-2-yl)ethyl]-cis-4,5-bis-(3-fluorophenyl)-4,5-dihydro-1H-imidazole trifluoroacetate]: the IC50 was found to be 592 nM.

Regarding `c1ccc(COc2ccc(CSC3=N[C@@H](c4ccccc4)[C@@H](c4ccccc4)N3)cc2OCc2ccccc2)cc1` [2-[(3,4-Dibenzyloxybenzyl)thio]-cis-4,5-diphenyl-4,5-dihydro-1H-imidazole hydrochloride], the IC50 amounted to 548 nM.

`Fc1ccc(CSC2=N[C@@H](c3ccccc3)[C@@H](c3ccccc3)N2)cc1F` [2-[(3,4-Difluorobenzyl)thio]-cis-4,5-diphenyl-4,5-dihydro-1H-imidazole hydrochloride]: the IC50 was found to be 461 nM.

Take `Fc1cccc(COCC2=N[C@@H](c3ccccc3)[C@@H](c3ccccc3)N2)c1` [2-[(3-Fluorobenzyloxy)methyl]-cis-4,5-diphenyl-4,5-dihydro-1H-imidazole hydrochloride]: the IC50 came to 274 nM.

For `Fc1cccc(OCC2=N[C@@H](c3cccc(F)c3)[C@@H](c3cccc(F)c3)N2)c1` [2-[(3-Fluorophenoxy)methyl]-cis-4,5-bis-(3-fluorophenyl)-4,5-dihydro-1H-imidazole], the IC50 is 316 nM.

Turning to `Fc1cccc(OCC2=N[C@@H](c3ccccc3)[C@@H](c3ccccc3)N2)c1` [2-[(3-Fluorophenoxy)methyl]-cis-4,5-diphenyl-4,5-dihydro-1H-imidazole trifluoroacetate], the IC50 was 224 nM.

As for `COc1cccc(CSC2=N[C@@H](c3ccccc3)[C@@H](c3ccccc3)N2)c1` [2-[(3-Methoxybenzyl)thio]-cis-4,5-diphenyl-4,5-dihydro-1H-imidazole hydrochloride], the IC50 turned out to be 987 nM.

Regarding `Cc1cccc(COCC2=N[C@@H](c3ccccc3)[C@@H](c3ccccc3)N2)c1` [2-[(3-Methylbenzyloxy)methyl]-cis-4,5-diphenyl-4,5-dihydro-1H-imidazole hydrochloride], the IC50 worked out at 415 nM.

`Fc1ccc(OCC2=N[C@@H](c3cccc(F)c3)[C@@H](c3cccc(F)c3)N2)cc1` [2-[(4-Fluorophenoxy)methyl]-cis-4,5-bis-(3-fluorophenyl)-4,5-dihydro-1H-imidazole]: the IC50 came out at 346 nM.

Consider `Fc1ccc(OCC2=N[C@@H](c3ccccc3)[C@@H](c3ccccc3)N2)cc1` [2-[(4-Fluorophenoxy)methyl]-cis-4,5-diphenyl-4,5-dihydro-1H-imidazole trifluoroacetate], for which the IC50 was determined as 401 nM.

As for `c1ccc(CSCC2=N[C@@H](c3ccccc3)[C@@H](c3ccccc3)N2)cc1` [2-[(Benzylsulfanyl)methyl]-cis-4,5-diphenyl-4,5-dihydro-1H-imidazole trifluoroacetate], the IC50 turned out to be 583 nM.

Consider `c1ccc([C@H]2NC(COC3CCCCCC3)=N[C@H]2c2ccccc2)cc1` [2-[(Cycloheptyloxy)methyl]-cis-4,5-diphenyl-4,5-dihydro-1H-imidazole trifluoroacetate], for which the IC50 turned out to be 603 nM.

For `c1ccc([C@H]2NC(COC3CCCCC3)=N[C@H]2c2ccccc2)cc1` [2-[(Cyclohexyloxy)methyl]-cis-4,5-diphenyl-4,5-dihydro-1H-imidazole trifluoroacetate], the IC50 is 315 nM.

Regarding `c1ccc([C@H]2NC(COC3CCCCCCC3)=N[C@H]2c2ccccc2)cc1` [2-[(Cyclooctyloxy)methyl]-cis-4,5-diphenyl-4,5-dihydro-1H-imidazole trifluoroacetate], the IC50 stood at 506 nM.
